# Measurements from patent US8927724B2, “Isoxazole beta-lactamase inhibitors” (priority 2012, dated 2015).
# Where a name gives a salt, the structure may show the parent alone.
# Test system: bacterial strains that express KPC β-lactamases
# Assay: Synergy MIC / standard BLI potentiation MIC assay, strains expressing KPC β-lactamases
# Type: cell-based
# Conditions: at least one KPC strain and/or better spectrum; in the presence of a β-lactam
# Description: The experimental protocol was performed according to Clinical and Laboratory Standards Institute (CLSI) guidelines with modifications as described below (CLSI guidelines can be derived from the CLSI document M07-A9 published in January 2012: “Methods for Dilution Antimicrobial Susceptibility Tests for Bacteria That Grow Aerobically; Approved Standard-Ninth Edition”).
# To prepare for MIC testing, frozen glycerol stocks of clinical isolates (Klebsiella pneumoniae, Eschericia coli, Enterobacter spp, Citrobacter spp, or Pseudomonas aeruginosa) were used to streak for isolated colonies on rich, non-selective, tryptic soy agar containing 5% sheep's blood (TSAB). Frozen glycerol stocks of laboratory engineered, isogenic E. coli strains, which contain cloned β-lactamase expressing plasmids were used to streak for isolated colonies on rich, selective LB agar supplemented with 25 μg/mL tetracycline to maintain the plasmid. All strains were incubated at 37° C. for 18-24 hrs.
# On the day of testing, primary cultures were started by scraping off 5-10 colonies from the TSAB plates containing clinical strains or the tetracycline supplemented LB plates containing engineered strains. The clinical strain material was suspended in ˜5 mL of cation adjusted Mueller Hinton Broth (CAMHB) in 14 mL culture tubes. The engineered strain material was suspended in CAMHB (supplemented with 25 μg/mL tetracycline) in 14 mL culture tubes. All strains were incubated at 37° C. with aeration (200 rpm) for ˜2 hrs until the optical density at 600 nm (OD600) was >0.1.
# The two compound components of the assay were each diluted in CAMHB and added to the 96-well broth microdilution assay plates. 50 μL of the β-lactam was added to each well of the assay plate in 2-fold dilutions with final concentrations ranging from 128 to 0.13 μg/mL. 25 μL of the BLI compound was added to all wells in the broth microdilution plates at a final concentration of 4 μg/mL. Inoculum cultures were prepared by standardizing the primary cultures to OD600=0.1 and then adding 20 μL of the adjusted primary culture per 1 mL CAMHB for clinical strains or CAMHB (supplemented with tetracycline at 100 μg/mL) for engineered strains, so that the final inoculum density was ˜10^5 colony forming units per milliliter. Diluted inoculum cultures were used to inoculate 25 μl, per well in 96-well broth microdilution assay plates. The final volume of each well was 100 μL and contained a β-lactam at different concentrations, a BLI compound at 4 μg/mL concentration, the bacterial culture at an OD600 of approximately 0.001 and when necessary tetracycline at 25 μg/mL.
# Plates were incubated for 18-20 hours at 37° C. with aeration (200 rpm). Following incubation, growth was confirmed visually placing plates over a viewing apparatus (stand with a mirror underneath) and then OD600 was measured using a SpectraMax 340PC384 plate reader (Molecular Devices, Sunnyvale, Calif.). Growth was defined as turbidity that could be detected with the naked eye or achieving minimum OD600 of 0.1. MIC values were defined as the lowest concentration producing no visible turbidity.
# The synergy MIC (sMIC) assay determines the concentration of the BLI required to potentiate the activity of a fixed concentration of a β-lactam antibiotic against β-lactamase producing bacterial strains. The experimental protocol was performed according to Clinical and Laboratory Standards Institute (CLSI) guidelines with modifications as described below (CLSI guidelines can be derived from the CLSI document M07-A9 published in January 2012: “Methods for Dilution Antimicrobial Susceptibility Tests for Bacteria That Grow Aerobically; Approved Standard-Ninth Edition”). […]
row,SMILES,"activity and/or spectrum of activity against bacterial strains that express KPC β-lactamases, compared with Avibactam"
1,"N=C(N)NCC(O)c1cc([C@@H]2CC[C@@H]3CN2C(=O)N3OS(=O)(=O)O)no1 (single isomer, unassigned) [Compound 612, (2S,5R)-2-(5-((S*)-2-guanidino-1-hydroxyethyl)isoxazol-3-yl)-7-oxo-1,6-diazabicyclo[3.2.1]octan-6-yl hydrogen sulfate]",more active than Avibactam
2,"NCc1cc([C@@H]2CC[C@@H]3CN2C(=O)N3OS(=O)(=O)O)no1 [Compound 601, (2S,5R)-2-(5-(aminomethyl)isoxazol-3-yl)-7-oxo-1,6-diazabicyclo[3.2.1]octan-6-yl hydrogen sulfate]",more active than Avibactam
3,"NCCNC(=O)c1cc([C@@H]2CC[C@@H]3CN2C(=O)N3OS(=O)(=O)O)no1 [Compound 605, (2S,5R)-2-(5-((2-aminoethyl)carbamoyl)isoxazol-3-yl)-7-oxo-1,6-diazabicyclo[3.2.1]octan-6-yl hydrogen sulfate]",more active than Avibactam
4,"N=C(N)N1CCC(c2cc([C@@H]3CC[C@@H]4CN3C(=O)N4OS(=O)(=O)O)no2)CC1 [Compound 607, (2S,5R)-2-(5-(1-carbamimidoylpiperidin-4-yl)isoxazol-3-yl)-7-oxo-1,6-diazabicyclo[3.2.1]octan-6-yl hydrogen sulfate]",more active than Avibactam
5,"N=C(N)NCCNC(=O)c1cc([C@@H]2CC[C@@H]3CN2C(=O)N3OS(=O)(=O)O)no1 [Compound 608, (2S,5R)-2-(5-((2-guanidinoethyl)carbamoyl)isoxazol-3-yl)-7-oxo-1,6-diazabicyclo[3.2.1]octan-6-yl hydrogen sulfate]",more active than Avibactam
6,"O=C1N2C[C@@H](CC[C@H]2c2cc(CCNC3CCNCC3)on2)N1OS(=O)(=O)O [Compound 609, (2S,5R)-7-oxo-2-(5-(2-(piperidin-4-ylamino)ethyl)isoxazol-3-yl)-1,6-diazabicyclo[3.2.1]octan-6-yl hydrogen sulfate]",more active than Avibactam
7,"N=C(N)N1CCC(NCCc2cc([C@@H]3CC[C@@H]4CN3C(=O)N4OS(=O)(=O)O)no2)CC1 [Compound 610, (2S,5R)-2-(5-(2-((1-carbamimidoylpiperidin-4-yl)amino)ethyl)isoxazol-3-yl)-7-oxo-1,6-diazabicyclo[3.2.1]octan-6-yl hydrogen sulfate]",more active than Avibactam
8,"N=C(N)NC1(Cc2cc([C@@H]3CC[C@@H]4CN3C(=O)N4OS(=O)(=O)O)no2)CC1 [Compound 613, (2S,5R)-2-(5-((1-guanidinocyclopropyl)methyl)isoxazol-3-yl)-7-oxo-1,6-diazabicyclo[3.2.1]octan-6-yl hydrogen sulfate]",more active than Avibactam
9,"N=C(N)NCCCc1cc([C@@H]2CC[C@@H]3CN2C(=O)N3OS(=O)(=O)O)no1 [Compound 615, (2S,5R)-2-(5-(3-guanidinopropyl)isoxazol-3-yl)-7-oxo-1,6-diazabicyclo[3.2.1]octan-6-yl hydrogen sulfate]",more active than Avibactam
10,"N[C@H]1C[C@@H](c2cc([C@@H]3CC[C@@H]4CN3C(=O)N4OS(=O)(=O)O)no2)C1 [Compound 616, (2S,5R)-2-(5-((1s,3R)-3-aminocyclobutyl)isoxazol-3-yl)-7-oxo-1,6-diazabicyclo[3.2.1]octan-6-yl hydrogen sulfate]",more active than Avibactam
